Laboratory results reported in patent US9706776B2, “Pesticidally active substituted 5,5-bicyclic heterocycles with sulphur containing substituents” (Syngenta Participations AG, priority 2013, dated 2017).

Columns and labels:
[1] = test system: Spodoptera littoralis (Egyptian cotton leaf worm); experiment: Example B1: Spodoptera littoralis larvicide, feeding/residual contact, preventive (cotton leaf discs); format: in vivo; details: foliar, 72 h, L1 larvae, 3 days after treatment, read-out: activity (mortality, repellent effect, feeding behaviour, growth regulation)
Source text: Example B1: Activity Against Spodoptera littoralis (Egyptian Cotton Leaf Worm)
(§1) (Larvicide, Feeding/Residual Contact Activity, Preventive)
Cotton leaf discs were placed on agar in a 24-well microtiter plate and sprayed with test solutions. After drying, the leaf discs were infested with 5 L1 larvae. The samples were checked for mortality, repellent effect, feeding behaviour, and growth regulation 3 days after treatment (DAT).

[2] = test system: Plutella xylostella (diamond back moth); experiment: Example B3: Plutella xylostella larvicide, feeding/residual contact, preventive (artificial diet); format: in vivo; details: 120 h, L2 larvae, incubation 5 days, read-out: activity (larval mortality, antifeedant, growth regulation)
Description: Example B3: Activity Against Plutella xylostella (Diamond Back Moth)
as §1
24-well microtiter plate (MTP) with artificial diet was treated with test solutions by pipetting. After drying, the MTPs were infested with L2 larvae (10-15 per well). After an incubation period of 5 days, samples were checked for larval mortality, antifeedant and growth regulation.

[3] = test system: Myzus persicae (green peach aphid); experiment: Example B5: Myzus persicae feeding/residual contact, preventive, mixed population (sunflower leaf discs); format: in vivo; details: foliar, 144 h, 6 DAT, read-out: activity (mortality and special effects)
Description: Example B5: Activity Against Myzus persicae (Green Peach Aphid)
(Feeding/Residual Contact Activity, Preventive), Mixed Population
Sunflower leaf discs were placed on agar in a 24-well microtiter plate and sprayed with test solutions. After drying, the leaf discs were infested with an aphid population of mixed ages. After an incubation period of 6 DAT, samples were checked for mortality and special effects (e.g. phytotoxicity).

[4] = test system: Myzus persicae (green peach aphid); experiment: Example B7: Myzus persicae systemic/feeding activity, curative, mixed population (pea seedlings); format: in vivo; details: 144 h, systemic, 6 days after introduction, read-out: activity (mortality and special effects on the plant)
Source text: Example B7: Activity Against Myzus persicae (Green Peach Aphid)
(Systemic/Feeding Activity, Curative), Mixed Population
Roots of pea seedlings, infested with an aphid population of mixed ages, were placed directly in the test solutions. 6 days after introduction, samples were checked for mortality and special effects on the plant.

[5] = test system: Diabrotica balteata (corn root worm); experiment: Example B4: Diabrotica balteata larvae L2 on maize sprouts, feeding/contact, preventative; format: in vivo; details: 120 h, incubation 5 days, read-out: activity (larval mortality, growth regulation)
Description: Example B4: Activity Against Diabrotica Balteata (Corn Root Worm)
(Larvae L2 on Maize Sprouts, Feeding/Contact, Preventative)
Maize sprouts, placed on an agar layer in 24 well micro titer plates were treated with test solutions by spraying. After drying, the MTPs were infested with L2 larvae (6-10 per well). After an incubation period of 5 days, samples were checked for larval mortality and growth regulation.

[6] = test system: Myzus persicae (green peach aphid); experiment: Example B6: Myzus persicae feeding activity sachet test, mixed population; format: in vivo; details: 120 h, 5 days after infestation
Source text: Example B6: Activity Against Myzus persicae (Green Peach Aphid)
(Feeding Activity Sachet Test), Mixed Population
Test compounds were applied by pipette into 24 well plates and mixed with Sucrose solution. The plates were closed with a stretched Parafilm. A plastic stencil with 24 holes is placed onto the plate and infested pea seedlings were placed directly on the Parafilm. The infested plate is closed with a gel blotting paper and another plastic stencil and then turned upside down. 5 days after infestation the samples were checked on mortality. Application rate: 12.5 ppm.

[7] = test system: Spodoptera littoralis (Egyptian cotton leaf worm); experiment: Example B2: Spodoptera littoralis systemic activity (lettuce on agar); format: in vivo; details: 120 h, 5 days after infestation, read-out: activity (mortality, repellent effect, feeding behavior, growth regulation)
Source text: Example B2: Activity Against Spodoptera littoralis (Egyptian Cotton Leaf Worm)
Test compounds were applied by pipette into 24 well plates and mixed with agar. Lettuce seeds were placed on the agar and the multi well plate is closed by another plate which contains also agar. After 7 days the roots have absorbed the compound and the lettuce has grown into the lid plate. The lettuce leaves were now cut off into the lid plate. Spodoptera eggs were pipetted through a plastic stencil on a humid gel blotting paper and the plate closed with it. The samples are checked for mortality, repellent effect, feeding behavior, and growth regulation 5 days after infestation.

[8] = test system: Anopheles stephensi (Indian malaria mosquito); experiment: Example B10: Anopheles stephensi adult females on treated tissue culture plates; format: in vivo; details: application rate 200 ppm in ethanol; after 48 h
Description: Example B10: Activity Against Anopheles stephensi (Indian Malaria Mosquito)
Test solutions, at an application rate of 200 ppm in ethanol, were applied to 12-well tissue culture plates. Once the deposits were dry, five, two to five day old adult female Anopheles stephensi were added to each well, and sustained with a 10% sucrose solution in a cotton wool plug. Assessment of knockdown was made one hour after introduction, and mortality was assessed at 24 and 48 hours after introduction.

[9] = test system: Euschistus heros (neotropical brown stink bug); experiment: Example B8: Euschistus heros on sprayed soybean leaf; format: in vivo; details: 120 h, N-2 nymphs, 5 days after infestation
Description: Example B8: Activity Against Euschistus heros (Neotropical Brown Stink Bug)
Soybean leaf on agar in 24-well microtiter plates were sprayed with aqueous test solutions prepared from 10′000 ppm DMSO stock solutions. After drying the leaf were infested with N-2 nymphs. The samples were assessed for mortality 5 days after infestation.

## CCS(=O)(=O)c1cccnc1-c1nc2sc(C(F)(F)F)nn2c1C [Compound P5]
[1]
  mortality at 400 ppm: > 80%
[2]
  mortality at 400 ppm: > 80%
[3]
  mortality at 400 ppm: > 80%
[4]
  mortality at 24 ppm: ≥ 80%

## CCS(=O)(=O)c1cc(C(F)(F)F)cnc1-c1cn2cc(C(F)(F)F)sc2n1 [Compound P9, 6-[3-ethylsulfonyl-5-(trifluoromethyl)-2-pyridyl]-2-(trifluoromethyl)imidazo[2,1-b]thiazole]
[1]
  mortality at 400 ppm: > 80%
[2]
  mortality at 400 ppm: > 80%
[5]
  mortality at 400 ppm: > 80%
[3]
  mortality at 400 ppm: > 80%

## CCS(=O)(=O)c1cc(C(F)(F)F)cnc1-c1nc2sc(C(F)(F)F)nn2c1C [Compound P3, 6-[3-ethylsulfonyl-5-(trifluoromethyl)-2-pyridyl]-5-methyl-2-(trifluoromethyl)imidazo[2,1-b][1,3,4]thiadiazole]
[1]
  mortality at 400 ppm: > 80%
[2]
  mortality at 400 ppm: > 80%
[5]
  mortality at 400 ppm: > 80%
[3]
  mortality at 400 ppm: > 80%
[6]
  mortality at 12.5 ppm: ≥ 80%

## CCS(=O)(=O)c1cccnc1-c1cn2nc(C(F)(F)F)sc2n1 [Compound P2, 6-(3-ethylsulfonyl-2-pyridyl)-2-(trifluoromethyl)imidazo[2,1-b][1,3,4]thiadiazole]
[1]
  mortality at 400 ppm: > 80%
[7]
  mortality at 12.5 ppm: ≥ 80%
[2]
  mortality at 400 ppm: > 80%
[5]
  mortality at 400 ppm: > 80%
[3]
  mortality at 400 ppm: > 80%
[6]
  mortality at 12.5 ppm: ≥ 80%
[4]
  mortality at 24 ppm: ≥ 80%
[8]
  control of Anopheles stephensi: at least 80%

## CCS(=O)(=O)c1cc(C(F)(F)F)cnc1-c1cn2nc(C(F)(F)F)sc2n1 [Compound P4]
[1]
  mortality at 400 ppm: > 80%
[2]
  mortality at 400 ppm: > 80%
[5]
  mortality at 400 ppm: > 80%

## CC[S+]([O-])c1cc(C(F)(F)F)cnc1-c1cn2cc(C(F)(F)F)sc2n1 (stereo not shown) [Compound P10]
[1]
  mortality at 400 ppm: > 80%

## CCSc1cc(C(F)(F)F)cnc1-c1cn2nc(C(F)(F)C(F)(F)F)sc2n1 [Compound P6]
other
  melting point: 110 to 112 °C

## CC[S+]([O-])c1cc(C(F)(F)F)cnc1-c1cn2nc(C(F)(F)C(F)(F)F)sc2n1 (stereo not shown) [Compound P7]
[1]
  mortality at 400 ppm: > 80%
[2]
  mortality at 400 ppm: > 80%
[5]
  mortality at 400 ppm: > 80%
[3]
  mortality at 400 ppm: > 80%
[9]
  mortality at 400 ppm: > 80%

## CCS(=O)(=O)c1cc(C(F)(F)F)cnc1-c1cn2nc(C(F)(F)C(F)(F)F)sc2n1 [Compound P8]
[1]
  mortality at 400 ppm: > 80%
[7]
  mortality at 12.5 ppm: ≥ 80%
[2]
  mortality at 400 ppm: > 80%
[5]
  mortality at 400 ppm: > 80%
[3]
  mortality at 400 ppm: > 80%
[9]
  mortality at 400 ppm: > 80%
